Data taken from patent US12091425B2 (AMGEN INC., priority 2016, dated 2024).

Assays:
[1] = molecular target: T1, Mcl-1/Bim interaction, recombinant human Mcl-1 (171-327) (Homo sapiens, UniProt Q07820); assay: Cell free Mcl-1: Bim Affinity Assay (Mcl-1 HTRF); assay type: binding
T1 construct: made in house
Summary of the method: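 Read-out is time-resolved FRET after overnight incubation, using a biotin-labelled peptide from human Bim (51-76) as the binding partner; IC50 was derived from competition curves.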

[2] = test system: OPM-2 human multiple myeloma cell line; assay: Cell Viability Assay (OPM-2 10 FBS); assay type: cell-based; conditions: OPM-2 cells, CellTiter-Glo
Summary of the method: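 ATP-based luminescence (CellTiter-Glo) measured after a 16 h compound treatment of OPM-2 cells seeded at 3000 cells/well in 10% FBS medium. IC50 values derived by 4-parameter logistic fitting of serial dilutions.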

[3] = TR-FRET, 0.1 nM Mcl-1 (171-327), 0.05 nM biotin-Bim (51-76)
[4] = Homo sapiens, OPM-2, 16 h, 16 h
[5] = cell free Mcl-1:Bim TR-FRET, recombinant human Mcl-1 (171-327)
[6] = Homo sapiens, OPM-2, 16 h, 16 h incubation

T1 sequence (Q07820 171-327): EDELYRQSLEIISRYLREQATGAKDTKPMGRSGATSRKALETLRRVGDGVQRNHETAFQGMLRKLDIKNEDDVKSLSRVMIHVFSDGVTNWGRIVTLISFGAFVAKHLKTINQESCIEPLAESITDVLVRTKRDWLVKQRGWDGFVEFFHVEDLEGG

Row | SMILES | IC50 [1, 3] | IC50 [2, 4] | IC50 ([2]; 16 h) | IC50 [1, 5] | other results
1 | COCCO[C@H]1/C=C/CCN(CCOC)S(=O)(=O)NC(=O)c2ccc3c(c2)N(C[C@@H]2CC[C@H]21)C[C@@]1(CCCc2cc(Cl)ccc21)CO3 [Example 48, (1S,3′R,6′R,7′S,8′E)-6-chloro-7′-(2-methoxyethoxy)-12′-(2-methoxyethyl)-3,4-dihydro-2H,15′H-spiro[naphthalene-1,22′-[20]oxa[13]thia[1,12,14]triazatetracyclo[14.7.2.0^3,6.0^19,24]pentacosa[8,16,18,24]tetraen]-15′-one 13′,13′-dioxide] | 0.562 nM | 524 nM | – | – | –
2 | O=C1NS(=O)(=O)[C@@H](CCS(=O)(=O)Cc2ccccc2)CC/C=C/[C@H](O)[C@@H]2CC[C@H]2CN2C[C@@]3(CCCc4cc(Cl)ccc43)COc3ccc1cc32 (single isomer, unassigned) [Example 162] | 0.979 nM | – | 8400 nM | – | –
3 | COC(=O)CN[C@H]1/C=C/CC[C@@H](C)S(=O)(=O)NC(=O)c2ccc3c(c2)N(C[C@@H]2CC[C@H]21)C[C@@]1(CCCc2cc(Cl)ccc21)CO3 [Example 599, methyl N-((1S,3′R,6′R,7′S,8′E,12′R)-6-chloro-12′-methyl-13′,13′-dioxido-15′-oxo-3,4-dihydro-2H-spiro[naphthalene-1,22′-[20]oxa[13]thia[1,14]diazatetracyclo[14.7.2.0^3,6.0^19,24]pentacosa [8,16,18,24]tetraen]-7′-yl)glycinate-trifluoroacetic Acid] | – | 652 nM | – | 1.51 nM | –
4 | C[C@@H]1[C@@H](C)C/C=C/[C@H](OCCN2CCCCC2=O)[C@@H]2CC[C@H]2CN2C[C@@]3(CCCc4cc(Cl)ccc43)COc3ccc(cc32)C(=O)NS1(=O)=O [Example 728, (1S,3′R,6′R,7′S,8′E,11′S,12′R)-6-chloro-11′,12′-dimethyl-7′-(2-(2-oxo-1-piperidinyl)ethoxy)-3,4-dihydro-2H,15′H-spiro[naphthalene-1,22′-[20]oxa[13]thia[1,14]diazatetracyclo[14.7.2.0^3,6.0^19,24]pentacosa [8,16,18,24]tetraen]-15′-one-13′, 13′-dioxide] | – | 268 nM | – | 0.437 nM | –
5 | CN(C)C(=O)CC[C@@H]1CC/C=C/[C@H](O)[C@@H]2CC[C@H]2CN2C[C@@]3(CCCc4cc(Cl)ccc43)COc3ccc(cc32)C(=O)NS1(=O)=O (single isomer, unassigned) [Example 618] | – | – | 607 nM | 0.172 nM | –
6 | O=C1NS(=O)(=O)CCC/C(Br)=C\[C@@H](O)[C@@H]2CC[C@H]2CN2C[C@@]3(CCCc4cc(Cl)ccc43)COc3ccc1cc32 (single isomer, unassigned) [Example 236] | 6.42 nM | – | 13700 nM | – | –
7 | COCCN1CC/C=C/[C@H](O)[C@@H]2CC[C@H]2CN2C[C@@]3(CCCc4cc(Cl)ccc43)COc3ccc(cc32)C(=O)NS1(=O)=O [Example 31, (1S,3′R,6′R,7′S,8′E)-6-chloro-7′-hydroxy-12′-(2-methoxyethyl)-3,4-dihydro-2H,15′H-spiro[naphthalene-1,22′-[20]oxa[13]thia[1,12,14]triazatetracyclo[14.7.2.0^3,6.0^19,24]pentacosa[8,16,18,24]tetraen]-15′-one 13′,13′-dioxide] | 0.492 nM | 621 nM | – | – | –
8 | C[C@@H]1[C@@H](C)C/C=C/[C@H](OCCC2CCOCC2)[C@@H]2CC[C@H]2CN2C[C@@]3(CCCc4cc(Cl)ccc43)COc3ccc(cc32)C(=O)NS1(=O)=O [Example 722, (1S,3′R,6′R,7′S,8′E,11′S,12′R)-6-chloro-11′,12′-dimethyl-7′-(2-(tetrahydro-2H-pyran-4-yl)ethoxy)-3,4-dihydro-2H,15′H-spiro [naphthalene-1,22′-[20]oxa[13]thia[1,14]diazatetracyclo [14.7.2.0^3,6.0^19,24]pentacosa[8,16,18,24]tetraen]-15′-one-13′, 13′-dioxide] | – | 473 nM | – | 11.9 nM | –
9 | O=C1NS(=O)(=O)[C@@H]2CCC[C@@H](CC[C@H](O)[C@@H]3CC[C@H]3CN3C[C@@]4(CCCc5cc(Cl)ccc54)COc4ccc1cc43)C2 (single isomer, unassigned) [Example 107] | 0.597 nM | – | 17300 nM | – | –
10 | CO[C@H]1/C=C\CC[C@@H](C[C@@H](C)O)S(=O)(=O)NC(=O)c2ccc3c(c2)N(C[C@@H]2CC[C@H]21)C[C@@]1(CCCc2cc(Cl)ccc21)CO3 (single isomer, unassigned) [Example 543] | – | – | 699 nM | 0.535 nM | –
11 | Cc1nnc(C[C@H]2CC/C=C/[C@H](O)[C@@H]3CC[C@H]3CN3C[C@@]4(CCCc5cc(Cl)ccc54)COc4ccc(cc43)C(=O)NS2(=O)=O)o1 (single isomer, unassigned) [Example 565] | – | – | 12600 nM | 0.61 nM | –
12 | C[C@@H]1[C@@H](C)C/C=C/[C@H](OCC(=O)NCC(F)(F)F)[C@@H]2CC[C@H]2CN2C[C@@]3(CCCc4cc(Cl)ccc43)COc3ccc(cc32)C(=O)NS1(=O)=O [Example 297, 2-(((1S,3′R,6′R,7′S,8′E,11′S,12′R)-6-chloro-11′,12′-dimethyl-13′,13′-dioxido-15′-oxo-3,4-dihydro-2H-spiro[naphthalene-1,22′-[20]oxa[13]thia[1,14]diazatetracyclo[14.7.2.0^3,6.0^19,24]pentacosa [8,16,18,24]tetraen]-7′-yl)oxy)-N-(2,2,2-trifluoroethyl)acetamide] | 0.654 nM | 478 nM | – | – | –
13 | CC[C@@H]1CC/C=C/[C@H](OCc2nnnn2C)[C@@H]2CC[C@H]2CN2C[C@@]3(CCCc4cc(Cl)ccc43)COc3ccc(cc32)C(=O)NS1(=O)=O [Example 988, (1S,3′R,6′R,7′S,8′E,12′R)-6-chloro-12′-ethyl-7′-((1-methyl-1H-tetrazol-5-yl)methoxy)-3,4-dihydro-2H,15′H-spiro[naphthalene-1,22′-[20]oxa[13]thia[1,14]diazatetracyclo[14.7.2.0^3,6.0^19,24]pentacosa [8,16,18,24]tetraen]-15′-one 13′,13′-dioxide] | 0.536 nM | – | – | – | IC50 [2, 6]: 1000 nM
14 | Cc1nnc(C[C@@H]2CC/C=C/[C@H](O)[C@@H]3CC[C@H]3CN3C[C@@]4(CCCc5cc(Cl)ccc54)COc4ccc(cc43)C(=O)NS2(=O)=O)o1 (single isomer, unassigned) [Example 564] | – | – | 3040 nM | 0.308 nM | –
15 | C[C@@H]1[C@@H](C)C/C=C/[C@H](OC[C@@H](C)O)[C@@H]2CC[C@H]2CN2C[C@@]3(CCCc4cc(Cl)ccc43)COc3ccc(cc32)C(=O)NS1(=O)=O (single isomer, unassigned) [Example 527] | – | – | 64.7 nM | 0.217 nM | –

More lines, main results first:

Row | IC50 [1, 3] | IC50 [2, 4] | SMILES | IC50 ([2]; 16 h) | IC50 [1, 5] | other results
16 | 2.54 nM | 3730 nM | CC1CCCS(=O)(=O)NC(=O)c2ccc3c(c2)N(CC2CCC2C(O)C1)CC1(CCCc2cc(Cl)ccc21)CO3 (single isomer, unassigned) [Example 240] | – | – | –
17 | 0.394 nM | – | CCC1C(C)C(C)C=CC(O)C2CCC2CN2CC3(CCCc4cc(Cl)ccc43)COc3ccc(cc32)C(=O)NS1(=O)=O (single isomer, unassigned) [Example 1055] | – | – | IC50 ([2]; 16 h incubation): 257 nM
18 | 0.785 nM | – | C[C@H]1[C@H](C)CC[C@H](O)[C@@H]2CC[C@H]2CN2C[C@@]3(CCCc4cc(Cl)ccc43)COc3ccc(cc32)C(=O)NS(=O)(=O)[C@@H]1C [Example 1046, (1S,3′R,6′R,7′S,10′R,11′S,12′R)-6-chloro-7′-hydroxy-10′,11′,12′-trimethyl-3,4-dihydro-2H,15′H-spiro[naphthalene-1,22′-[20]oxa[13]thia[1,14]diazatetracyclo[14.7.2.0^3,6.0^19,24]pentacosa [16,18,24]trien]-15′-one 13′,13′-dioxide] | – | – | IC50 [2, 6]: 2520 nM
19 | – | 862 nM | C[C@@H]1[C@@H](C)C/C=C/[C@H](OCCN2CCC2)[C@@H]2CC[C@H]2CN2C[C@@]3(CCCc4cc(Cl)ccc43)COc3ccc(cc32)C(=O)NS1(=O)=O [Example 526, (1S,3′R,6′R,7′S,8′E,11′S,12′R)-7′-(2-(1-azetidinyl)ethoxy)-6-chloro-11′,12′-dimethyl-3,4-dihydro-2H,15′H-spiro[naphthalene-1,22′-[20]oxa[13]thia[1,14]diazatetracyclo[14.7.2.0^3,6.0^19,24]pentacosa [8,16,18,24]tetraen]-15′-one 13′,13′-dioxide 2,2,2-trifluoroacetic Acid] | – | 1.06 nM | –
20 | – | 235 nM | C[C@@H]1[C@@H](C)C/C=C/[C@H](OCCCO)[C@@H]2CC[C@H]2CN2C[C@@]3(CCCc4cc(Cl)ccc43)COc3ccc(cc32)C(=O)NS1(=O)=O [Example 509, (1S,3′R,6′R,7′S,8′E,11′S,12′R)-6-chloro-7′-(3-hydroxypropoxy)-11′,12′-dimethyl-3,4-dihydro-2H,15′H-spiro[naphthalene-1,22′-[20]oxa[13]thia[1,14]diazatetracyclo[14.7.2.0^3,6.0^19,24]pentacosa [8,16,18,24]tetraen]-15′-one 13′,13′-dioxide] | – | 0.188 nM | –
21 | 0.299 nM | – | COCCO[C@H]1/C=C/[C@H](C)[C@H](C)[C@@H](C)S(=O)(=O)NC(=O)c2ccc3c(c2)N(C[C@@H]2CC[C@H]21)C[C@@]1(CCCc2cc(Cl)ccc21)CO3 [Example 1048, (1S,3′R,6′R,7′S,8′E,10′S,11′S,12′R)-6-chloro-7′-(2-methoxyethoxy)-10′,11′,12′-trimethyl-3,4-dihydro-2H,15′H-spiro[naphthalene-1,22′-[20]oxa[13]thia[1,14]diazatetracyclo[14.7.2.0^3,6.0^19,24]pentacosa [8,16,18,24]tetraen]-15′-one 13′,13′-dioxide] | – | – | IC50 [2, 6]: 90.8 nM
22 | 4.08 nM | – | CCN1[C@H](C)C/C=C\[C@H](O)[C@@H]2CC[C@H]2CN2C[C@@]3(CCCc4cc(Cl)ccc43)COc3ccc(cc32)C(=O)NS1(=O)=O (single isomer, unassigned) [Example 60] | 2690 nM | – | –
